Measurements published in patent US20150140015A1, “METHODS AND PHARMACEUTICAL COMPOSITIONS FOR THE TREATMENT OF PANCREATIC CANCER” (INSERM (Institut National de la Sante et de la Recherche …, priority 2013, published 2015).

Tests used:
AsPC-1 cells [1] = test: Cell growth of AsPC-1 cells (cell counting); format: cell-based, human; settings: 0.1 μM, 48 h; AsPC-1 cells (FIG. 9)
Procedure: FIG. 9. Effect of Orexin-B anti-OX1R antibodies on cell growth of AsPC-1 cells. Cells were incubated with 0.1 μM of OxB or antibodies for 48 h in culture medium and then cells were counted in order to estimate the cellular growth.
The aims of this study were: 1/ to investigate the presence of OX1R in human PAC cell lines and to analyze orexin-A effects in relation to apoptosis; 2/ to develop an in vivo heterotopic xenograft model from the cell lines expressing OX1R, for the study of tumor growth in response to Orexin-A. The expression of OX1R was studied at mRNA (RT-PCR), proteins (immunocytochemistry) and functional levels in 3 PAC cell lines (AsPC-1, HPAF-II and SW1990). The development of an animal model (heterotopic xenograft) from the cell line expressing OX1R, has allowed studying the effect of Orexin-A in tumor growth. Resected tumors were analyzed by immunohistochemistry. Only AsPC-1 cell line expresses OX1R.
The development of antibodies directed against OX1R were produced by a phage display strategy and the antibody selection was performed by using HEK and HEK stably expressing OX1R (HEK-OX1R) cell lines. […] Cells were incubated with 0.1 μM of OxB or antibodies for 48 h in culture medium and then cells were counted in order to estimate the cellular growth. […]

[2] = test system: HEK stably expressing OX1R (HEK-OX1R); test: Cell growth of HEK-OX1R cells (cell counting); format: cell-based; settings: 0.1 μM, 48 h
Procedure: The development of antibodies directed against OX1R were produced by a phage display strategy and the antibody selection was performed by using HEK and HEK stably expressing OX1R (HEK-OX1R) cell lines. […] Cells were incubated with 0.1 μM of OxB or antibodies for 48 h in culture medium and then cells were counted in order to estimate the cellular growth. […] We have tested the ability of antibodies to inhibit the cellular growth in cancer cell lines derived from and pancreas cancer (AsPC-1 cells).

[3] = test system: HPAF-II cells expressing recombinant OX1R; test: Quantification of apoptotic cells by annexin V-PE labeling in recombinant OX1R/HPAF-II cells; format: cell-based, human; settings: OX1R-expressing HPAF-II cells; NSC-87877 50 μM with 1 μM orexin-A
Procedure: FIGS. 5A and B. Effect of orexin-A on apoptosis in OX1R expressing recombinant OX1R/HPAF-II cells. A, Parental HPAF-II and recombinant OX1R/HPAF-II cells were challenged with (black bars) or without (white bars) 1 μM orexin-A for 48 hr in the absence or presence of the SHP-2 protein tyrosine phosphatase inhibitor, NSC-87877 (50 μM). Apoptosis was measured by determination of annexin V-PE binding. Results are expressed as the percentage of apoptotic cells, and are the means±SE of three separate experiments. ***p<0.001; ns, non-significant; B, paraformaldehyde-fixed HPAF-II cells and recombinant OX1R/HPAF-II cells were challenged with or without (Basal) 1 μM orexin-A for 48 hr. Indirect immunostaining of activated caspase-3 in parental HPAF-II cells (left panels) and recombinant OX1R/HPAF-II cells (right panels) in the presence (bottom panels) or tabsence (top panels) of orexin-A is illustrated in B. […]
AsPC-1, SW 1990, HPAF-II and HPAF-II/hOX1R cells (seeded at 5×10^4 cells/well) were grown in 24-well plates for 24 hr under the culture conditions described above. […] Results are expressed as the percentage of apoptotic phycoerythrin-labelled Annexin V (Annexin V-PE) positive cells and are the means of 3 independent analyses.

parental HPAF-II cells = test: Quantification of apoptotic cells by annexin V-PE labeling in parental HPAF-II cells; format: cell-based, human; settings: parental HPAF-II cells; NSC-87877 50 μM
Procedure: FIGS. 5A and B. Effect of orexin-A on apoptosis in OX1R expressing recombinant OX1R/HPAF-II cells. A, Parental HPAF-II and recombinant OX1R/HPAF-II cells were challenged with (black bars) or without (white bars) 1 μM orexin-A for 48 hr in the absence or presence of the SHP-2 protein tyrosine phosphatase inhibitor, NSC-87877 (50 μM). Apoptosis was measured by determination of annexin V-PE binding. Results are expressed as the percentage of apoptotic cells, and are the means±SE of three separate experiments. ***p<0.001; ns, non-significant; B, paraformaldehyde-fixed HPAF-II cells and recombinant OX1R/HPAF-II cells were challenged with or without (Basal) 1 μM orexin-A for 48 hr. Indirect immunostaining of activated caspase-3 in parental HPAF-II cells (left panels) and recombinant OX1R/HPAF-II cells (right panels) in the presence (bottom panels) or tabsence (top panels) of orexin-A is illustrated in B.
(§1) AsPC-1, SW 1990, HPAF-II and HPAF-II/hOX1R cells (seeded at 5×10^4 cells/well) were grown in 24-well plates for 24 hr under the culture conditions described above. The culture medium was then replaced every 24 hr with fresh medium with or without orexin-A (GL Biochemicals) at a concentration of 1 μM in the presence or absence of the SHP-2 inhibitor, NSC-87877 (50 μM) (Calbiochem, VWR International SAS, France). At the end of the treatment (48 hr), apoptotic cells were determined using the Guava Nexin™ kit (Guava Technologies, Hayward, Calif., USA), which discriminates between apoptotic and non-apoptotic cells (Rouet-Benzineb P, Rouyer-Fessard C, Jarry A, et al. Orexins Acting at Native OX1 Receptor in Colon Cancer and Neuroblastoma Cells or at Recombinant OX1 Receptor Suppress Cell Growth by Inducing Apoptosis. J Biol Chem 2004; 279:45875-86), analyzed with the Guava Personal Cell Analysis (PCA) system (Merck-Millipore, Guyancourt, France), and counted (2,000 events) (Voisin et al, 2008, as above). Results are expressed as the percentage of apoptotic phycoerythrin-labelled Annexin V (Annexin V-PE) positive cells and are the means of 3 independent analyses.

AsPC-1 cells [4] = test: Quantification of apoptotic cells by annexin V-PE labeling in AsPC-1 cells; format: cell-based, human; settings: 48 hr; for effect of SHP-2 inhibitor on orexin-induced apoptosis: AsPC-1 cells, NSC-87877 50 μM with 1 μM orexin-A
Procedure: FIG. 4A-C. Effect of orexin-A on apoptosis in AsPC-1 cells. A, SHP-2 protein tyrosine phosphatase inhibitor, NSC-87877, blocks orexin-induced apoptosis. AsPC-1 cells were challenged with (black bars) or without (white bars) 1 μM orexin-A for 48 hr in the absence or presence of NSC-87877 (50 μM). Apoptosis was measured by determination of annexin V-PE binding, and results are expressed as the percentage of apoptotic cells; B and C: Indirect immunostaining of activated caspase-3 in AsPC-1 cells in the presence or absence of orexin-A. Paraformaldehyde-fixed AsPC-1 cells were challenged with (orexin-A) or without (basal) 1 μM orexin-A for 48 hr. Activated caspase-3 immunostaining is shown in B and scored in C. Results are means±SE of three separate experiments. ***p<0.001; ns, non-significant.
as §1

Compound: orexin-B: 28 amino acid hypothalamic neuropeptide, SEQ ID NO:3
- inhibition of cell growth (AsPC-1 cells [1]): able to inhibit the cell growth
- reduction of HEK-OX1R cell number [2]: 40±3%

Compound: O=S(=O)(O)c1ccc2cc(N=Nc3cc(S(=O)(=O)O)c4cccnc4c3O)ccc2c1 [NSC-87877]
- effect of SHP-2 inhibitor on orexin-A-induced apoptosis [3]: totally abolished
- effect of SHP-2 inhibitor on apoptosis (parental HPAF-II cells): no effect
- effect of SHP-2 inhibitor on orexin-induced apoptosis (AsPC-1 cells [4]): reverse orexin-induced apoptosis
- effect of SHP-2 inhibitor on orexin-induced apoptosis (AsPC-1 cells [4]; listed as NSC 87877): totally abolished
- percentage of apoptotic cells (annexin V-PE) (AsPC-1 cells [4]; NSC 87877 (50 μM) in the absence of orexin-A): 4.6%±0.9
- percentage of apoptotic cells (annexin V-PE) (AsPC-1 cells [4]; NSC 87877 (50 μM) in the presence of 1 μM orexin-A): 4.8%±0.5
